{"source": "patent US4847306A", "about": "“Antihypercholesterolemic compounds” (Merck & Co., Inc., priority 1988, dated 1989)", "system": "HMG-CoA reductase", "assay": "HMG-CoA Reductase Inhibition Assay (in vitro, intrinsic inhibitory activity)", "type": "biochemical", "settings": "compactin assigned a value of 100; IC50 of test compound compared with that of compactin determined simultaneously; tested as sodium salt of dihydroxy acid form; solubilized rat liver microsomal enzyme", "experimental": "The intrinsic HMG-CoA reductase inhibition activity of the claimed compounds is measured in the in vitro protocol published in J. Med. Chem., 28, P. 347-358 (1985) and described below:\nIsolation of HMG-CoA Reductase. Male Holtzman Sprague-Dawley rate (225-250 g) were kept on reversed lighting and fed Purina rat chow containing 3% cholestyramine for 7 days preceding their sacrifice by CO2 asphyxiation. Livers were removed 6 hours into the dark cycle and used immediately to prepare microsomes. HMG-CoA reductase was solubilized from the freshly prepared microsome by the method of Heller and Shrewsbury [J. Boil Chem., 1976, 251,3815], and purified through the second ammonium sulfate precipitation step as described by Kleinsek et al., [Proc. Natl. Acad. Sci. USA, 1977, 74, 1431]. The enzyme preparation was tested for HMG-CoA reductase potency and diluted with 100 mM phosphate buffer (pH 7.2) so that 100 μL of the enzyme solution, when added to the assay control, gave a value of 50,000-60,000 dpm. The enzyme preparation was stored at -80° C.\nHMG-CoA Reductase Inhibition Assay. The assay is essentially the procedure of Shefer et al., [J. Lipid Res., 1972, 13, 402]. The complete assay medium contained the following in a total volume of 0.8 mL: phosphate buffer, pH 7.2, 100 mM; MgCl2, 3 mM; NADP, 3 mM; glucose 6-phospate, 10 mM; glucose-6-phosphate dehydrogenase, 3 enzyme units; reduced glutathione, 50 mM; HMG-CoA (glutaryl-3-^14C, New England Nuclear), 0.2 mM (0.1 μCi); and partially purified enzyme stock solution, 100 μL.\nTest compounds or compactin (after first being converted to the sodium salt of their dihydroxy acid form in situ by addition of 1N NaOH (1 equiv)) were added to the assay system in 10-μL volumes at multiconcentration levels. After a 40-minute incubation at 37° C. with shaking and exposure to air, the reaction was stopped by the addition of 0.4 mL of 8N HCl. After an additional 30-minute incubation period at 37° C. to ensure the complete lactonization of mevalonic acid to mevalonolactone, 0.2 mL of the mixture was added to an 0.5×5.0 cm column containing 100-200-mesh Bio-Rex 5, chloride form (Bio-Rad), wetted with distilled water, as described by Alberts et al. [J. Proc. Natl. Acad. Sci. U.S.A., 1980, 77, 3957]. The unreacted [^14 C]HMG-CoA was absorbed on the resin and the [^14 C]mevalonolacetone was eluted with distilled water (2×1 mL) directly into 7-mL scintillation vials. Five milliliters of Aquasol-2 (New England Nuclear) was added to each vial, and radioactivity was measured in a Packard Tri Carb Prias scintillation counter. IC50 values were determined by plotting percentage inhibition against test compound concentration and fitting a straight line to the resulting data by using the least-squares method. For estimation of relative inhibitory potencies, compactin was assigned a value of 100 and the IC50 value of the test compound was compared with that of compactin determined simultaneously.", "data": [{"smiles": "C[C@H]1C=C2C=C[C@H](C)[C@H](CC[C@@H](O)C[C@@H](O)CC(=O)O)[C@H]2[C@@H](OC(=O)C2(C)CC2)C1", "values": [{"measurement": "Relative Potency", "result": 76}]}, {"smiles": "C[C@H]1C=C2C=C[C@H](C)[C@H](CC[C@@H](O)C[C@@H](O)CC(=O)O)[C@H]2[C@@H](OC(=O)C2(C)CCC2)C1", "values": [{"measurement": "Relative Potency", "result": 171}]}, {"smiles": "CSC1(C(=O)O[C@H]2C[C@@H](C)C=C3C=C[C@H](C)[C@H](CC[C@@H](O)C[C@@H](O)CC(=O)O)[C@H]32)CCC1", "values": [{"measurement": "Relative Potency", "result": 240}]}, {"smiles": "C[C@H]1C=C2C=C[C@H](C)[C@H](CC[C@@H](O)C[C@@H](O)CC(=O)O)[C@H]2[C@@H](OC(=O)C2(CCCO)CCC2)C1", "values": [{"measurement": "Relative Potency", "result": 100}]}, {"smiles": "C[C@H]1C=C2C=C[C@H](C)[C@H](CC[C@@H](O)C[C@@H](O)CC(=O)O)[C@H]2[C@@H](OC(=O)C2(Cc3ccc(O)cc3)CCC2)C1", "values": [{"measurement": "Relative Potency", "result": 200}]}, {"smiles": "C[C@H]1C=C2C=C[C@H](C)[C@H](CC[C@@H](O)C[C@@H](O)CC(=O)O)[C@H]2[C@@H](OC(=O)C2(CO)CCC2)C1", "values": [{"measurement": "Relative Potency", "result": 88}]}, {"smiles": "C[C@H]1C=C2C=C[C@H](C)[C@H](CC[C@@H](O)C[C@@H](O)CC(=O)O)[C@H]2[C@@H](OC(=O)C2(Cc3ccccc3)CCC2)C1", "values": [{"measurement": "Relative Potency", "result": 156}]}, {"smiles": "C[C@H]1C=C2C=C[C@H](C)[C@H](CC[C@@H](O)C[C@@H](O)CC(=O)O)[C@H]2[C@@H](OC(=O)C2(C)CCCC2)C1", "values": [{"measurement": "Relative Potency", "result": 188}]}, {"smiles": "CSC1(C(=O)O[C@H]2C[C@@H](C)C=C3C=C[C@H](C)[C@H](CC[C@@H](O)C[C@@H](O)CC(=O)O)[C@H]32)CCCC1", "values": [{"measurement": "Relative Potency", "result": 167}]}, {"smiles": "C[C@H]1C=C2C=C[C@H](C)[C@H](CC[C@@H](O)C[C@@H](O)CC(=O)O)[C@H]2[C@@H](OC(=O)C2(C)CCCCC2)C1", "values": [{"measurement": "Relative Potency", "result": 217}]}]}
